Assay results from paper PMC5823406, “Vehicle development, pharmacokinetics and toxicity of the anti-invasive agent 4-fluoro-3’,4’,5’-trimethoxychalcone in rodents” (PLoS ONE, 2018).
Marks after values point to notes of the source that are not given here.

System: CD-1 mice
Assay: 7-Day repeat-dose toxicity study (medicated gel)
Type: in vivo, mouse
Conditions: for Organ weight: Kidneys / Organ weight: Liver / Organ weight: Spleen: Average±SD; for Hyperactivity and increased anxiety on opening of the cages: from day 2 on
Description: Fifteen 7-week old male CD-1 mice, weighing 27 to 34 g, were obtained from Janvier, France. Animals were randomly allocated to one of four cohorts (N = 4 for the 0 mg/kg, 100 mg/kg and 300 mg/kg C16 cohorts, N = 3 for the water control group). Animals were healthy at the start of the trial. Each cohort was housed in one conventional cage with wood chip bedding and kept in a room with a well-controlled temperature (20–24°C) and humidity with 12-h light/dark cycles. Duration of acclimation was five days, during which all animals had ad libitum access to feed and tap water. Feed was obtained from Carfil, Belgium (Complete feed for rats and mice, article n° 10783915). Animals were ear-marked under isoflurane anesthesia (induction 5%, maintenance 2.5%, oxygen 1 L/min) on day -3 of the study. The study was not blinded.
On the morning of day -2 of the study, tap water access was removed from the 0 mg/kg, 100 mg/kg and 300 mg/kg C16 cohorts. These groups were granted access to two non-medicated cups of Medigel sucralose (one in a tailor-made plastic holder with magnetic fixation system to the side of the cage, one in a cardboard holder on top of the bedding material) for an acclimatization period of three days. Note: the magnetic fixation system is preferable, as animals tear and consume the cardboard holders.
Medicated gels were prepared in order to provide animals with a PO C16 dose equaling oral gavage dosing at 0, 100 and 300 mg/kg three times per day (0, 78.43 and 235.29 mg C16 per cup, respectively, assuming a consumption of 7 mL of gel per day and an average animal weight of 30 g). On the morning of day 0 of the study, treatment with two medicated gels was started and maintained up to the morning of day 7 (i.e. a 7-day treatment). Fresh cups were prepared and provided every day. Meanwhile, the water control group was continuously granted unlimited access to tap water. Throughout the study, all animals had ad libitum access to feed, except for the water control group, which was fasted on the evening of day 6, i.e. twelve hours prior to the single PO test article administration. Animal weight, feed and water/gel consumption and the presence of toxic symptoms and autonomic effects were monitored on a daily basis for all cohorts.
On the evening of day 6, blood was collected via the tail vein for the 0, 100 and 300 mg/kg C16 cohorts for determination of the whole blood C16 level. On the morning of day 7, mice of the 0, 100 and 300 mg/kg C16 cohorts were anesthetized by IP injection with 250 mg/kg of Avertin (20 mL/kg, preparation see Section E in S1 File). Blood for C16 determination and hematological and biochemical analysis was collected via cardiac exsanguination (600 μL to 1 mL). Detailed analysis protocols are described below. Afterward, animals were sacrificed by cervical dislocation.
All animals were necropsied and assessed for gross pathology. Liver, kidneys and spleen weights were recorded, and fragments of these organs were fixed in a 4% formaldehyde solution and processed for microscopic evaluation.
Cardiac puncture as described above afforded 0.6–1 mL of blood. Approximately 500 μL thereof was collected in a Greiner Bio 0.5 mL ethylenediaminetetraacetic acid (EDTA) Eppendorf tube for hematological parameter determination and kept at room temperature. The remaining volume was collected in a regular Eppendorf tube and allowed to clot completely at room temperature over 45 min. The tubes were centrifuged at 1,900 x g (3000 rpm) and 4 °C for 10 min using a swinging bucket rotor. The upper serum phase was transferred to a new tube with conical bottom. Care was taken not to disturb the intermediate buffy coat layer. The serum samples were centrifuged at 16,000 x g and 4 °C for 10 min in a fixed-angle rotor. The cleared supernatant was transferred to a new tube without disturbing the pellet, affording 200–500 μL of serum. Samples were diluted to 500 μL with normal saline, flash frozen in liquid N2 and stored at -80 °C prior to analysis. […]

[1] = 100 mg/kg cohort, 7-day PO via medicated gels, average±SD
[2] = 300 mg/kg cohort, 7-day PO via medicated gels
[3] = 300 mg/kg cohort, 7-day PO via medicated gels, average±SD

## COc1cc(C(=O)/C=C/c2ccc(F)cc2)cc(OC)c1OC [C16, 4-fluoro-3’,4’,5’-trimethoxychalcone]
[1]
  ALP: 118±33 IU/L
  ALT: 70±40 IU/L
  AST: 345±365 IU/L
  BASO: 0.2±0.2%
  CHO: 96 ± 21 mg/dL
  EO: 0±0%
  GLUC: 218 ± 30 mg/dL
  HCT: 44.5±5.2%
  HGB: 12.2 ± 0.2 g/dL
  IG: 0.04±0.06 10^3/μL
  LYMP: 79.2±3.4%
  MCH: 14.7 ± 1.5 pg
  MCV: 53.4 ± 1.8 fL
  MONO: 2.5±0.6%
  NEUT: 16.9±4.9%
  NRBC: 0.75±1.06 10^3/μL
  PLT: 281±33 10^3/μL
  RBC: 8.32±0.69 10^6/μL
  TP: 42.0 ± 4.5 g/L
  TRIGL: 110 ± 45 mg/dL
  WBC: 3.05±0.08 10^3/μL
100 mg/kg cohort
  Organ weight: Kidneys: 0.45 ± 0.02 g
  Organ weight: Liver: 1.67 ± 0.33 g
  Organ weight: Spleen: 0.16 ± 0.06 g
  Hyperactivity and increased anxiety on opening of the cages: slightly noticeable
100 mg/kg cohort, Day 1
  Daily gel consumption, average: 14.9 g/animal
  Feed consumption, average: 4.8 g/animal
100 mg/kg cohort, Day 1, Average±SD
  Animal weight: 30.0 ± 1.7 g
100 mg/kg cohort, Day 2
  Daily gel consumption, average: 12.3 g/animal
  Feed consumption, average: 5.4 g/animal
100 mg/kg cohort, Day 2, Average±SD
  Animal weight: 30.6 ± 1.6 g
100 mg/kg cohort, Day 3
  Daily gel consumption, average: 11.2 g/animal
  Feed consumption, average: 6.1 g/animal
100 mg/kg cohort, Day 3, Average±SD
  Animal weight: 31.2 ± 2.0 g
100 mg/kg cohort, Day 4
  Daily gel consumption, average: 15.1 g/animal
  Feed consumption, average: 6.9 g/animal
100 mg/kg cohort, Day 4, Average±SD
  Animal weight: 32.0 ± 2.1 g
100 mg/kg cohort, Day 5
  Daily gel consumption, average: 18.1 g/animal
  Feed consumption, average: 5.9 g/animal
100 mg/kg cohort, Day 5, Average±SD
  Animal weight: 32.4 ± 2.0 g
100 mg/kg cohort, Day 6
  Daily gel consumption, average: 13.1 g/animal
  Feed consumption, average: 5.6 g/animal
100 mg/kg cohort, Day 6, Average±SD
  Animal weight: 32.1 ± 2.0 g
100 mg/kg cohort, Day 7
  Daily gel consumption, average: 11.8 g/animal
  Feed consumption, average: 5.6 g/animal
100 mg/kg cohort, Day 7, Average±SD
  Animal weight: 32.7 ± 2.2 g
[2]
  IG: 0 10^3/μL
  LYMP: 60.1%
  NEUT: 39.9%
[3]
  ALP: 94±18 IU/L
  ALT: 43±9 IU/L
  AST: 221±65 IU/L
  BASO: 0±0%
  CHO: 73 ± 18 mg/dL
  EO: 0±0%
  GLUC: 206±24 ^a mg/dL
  HCT: 34.0±7.78%
  HGB: 10.1 ± 2.9 g/dL
  MCH: 16.0 ± 0.2 pg
  MCV: 54.5 ± 4.24 fL
  MONO: 2.6±3.7%
  NRBC: 0.35±0.49 10^3/μL
  RBC: 6.32±1.92 10^6/μL
  TP: 31.6 ± 21.3 g/L
  TRIGL: 123 ± 55 mg/dL
  WBC: 2.97±0.94 10^3/μL
300 mg/kg cohort
  Organ weight: Liver: 1.70 ± 0.19 g
  Organ weight: Spleen: 0.15 ± 0.04 g
  Hyperactivity and increased anxiety on opening of the cages: noticeable
300 mg/kg cohort, p 0.001
  Organ weight: Kidneys: 0.39 ± 0.02 g
300 mg/kg cohort, Day 1
  Daily gel consumption, average: 15.2 g/animal
  Feed consumption, average: 6.0 g/animal
300 mg/kg cohort, Day 1, Average±SD
  Animal weight: 28.6 ± 0.6 g
300 mg/kg cohort, Day 2
  Daily gel consumption, average: 12.6 g/animal
  Feed consumption, average: 6.3 g/animal
300 mg/kg cohort, Day 2, Average±SD
  Animal weight: 29.8 ± 0.7 g
300 mg/kg cohort, Day 3
  Daily gel consumption, average: 14.7 g/animal
  Feed consumption, average: 8.4 g/animal
300 mg/kg cohort, Day 3, Average±SD
  Animal weight: 29.6 ± 0.8 g
300 mg/kg cohort, Day 4
  Daily gel consumption, average: 12.9 g/animal
  Feed consumption, average: 6.6 g/animal
300 mg/kg cohort, Day 4, Average±SD
  Animal weight: 30.5 ± 1.4 g
300 mg/kg cohort, Day 5
  Daily gel consumption, average: 15.4 g/animal
  Feed consumption, average: 6.1 g/animal
300 mg/kg cohort, Day 5, Average±SD
  Animal weight: 30.7 ± 1.6 g
300 mg/kg cohort, Day 6
  Daily gel consumption, average: 13.6 g/animal
  Feed consumption, average: 7.1 g/animal
300 mg/kg cohort, Day 6, Average±SD
  Animal weight: 31.1 ± 1.8 g
300 mg/kg cohort, Day 7
  Daily gel consumption, average: 12.9 g/animal
  Feed consumption, average: 6.2 g/animal
300 mg/kg cohort, Day 7, Average±SD
  Animal weight: 31.3 ± 1.2 g
300 mg/kg cohort, p = 0.001
  Kidney weight versus 100 mg/kg and 0 mg/kg cohort: slight but significant decrease
Medicated gel, 7 days
  Gross lesions on detailed necropsy: No gross lesions
  Histology of the kidney and spleen: no abnormalities
